According to patent US7718186B2, “2-alkoxy-6-alkylphenyl-substituted spirocyclic tetramic acid derivatives” (Bayer CropScience AG, priority 2004, dated 2010):

Key:
Type in all cases: in vivo
Summer barley = assay: Container trials with cereal in a greenhouse, with and without safener (post-emergence); conditions: crop damage; 50 g of a.i./ha; 28 days after application
Method: (§1) Herbicidal Post-emergence Action
(§2) Seeds of monocotyledonous and dicotyledonous weed and crop plants are placed into sandy loam in wood fiber pots or in plastic pots, covered with soil and cultivated in a greenhouse, during the vegetation period also outdoors outside of the greenhouse, under good growth conditions. Two to three weeks after sowing, the test plants are treated at the one- to three-leaf stage. The test compounds, formulated as wettable powders (WP) or liquid (EC) are, in various dosages with a water application rate of 300 l/ha (converted), with wetting agent (0.2 to 0.3%) added, sprayed onto the plants and the surface of the soil. Three to four weeks after the treatment of the test plants, the effect of the preparations is rated visually in comparison to untreated controls (herbicidal effect in percent (%):
(§3) (100% effect=the plants have died, 0% effect=like control plants).
(§4) If it is additionally to be tested as to whether safeners can improve the plant compatibility of test substances in the case of crop plants, the following options are used for applying the safener: • seeds of the crop plants are, before sowing, dressed with the safener substance (amount of safener stated in percent, based on the weight of the seed) • before the application of the test substances, the crop plants are sprayed with the safener at a certain application rate per hectare (usually 1 day before the application of the test substances) • the safener is applied together with the test substance as a tank mix (amount of safener stated in g/ha or as a ratio, based on the herbicide).
(§5) By comparing the effect of the test substances on crop plants without or with safener treatment, it is possible to assess the effect of the safener substance.
(§6) Container Trials with Cereal in a Greenhouse
(§7) Mefenpyr 1 Day Prior to Herbicide Application

Summer wheat = assay: as above; conditions: crop damage, 28 days after application
Method: as §1, §2, §3, §4, §5, §6, §7

Lolium multiflorum [1] = assay: Herbicidal post-emergence action; conditions: greenhouse, 320 g of a.i./ha
Method: (§8) 2. Herbicidal Post-emergence Action
(§9) Seeds of monocotyledonous and dicotyledonous weed and crop plants are placed into sandy loam in wood fiber pots, covered with soil and cultivated in the greenhouse under good growth conditions. Two to three weeks after sowing, the test plants are treated at the one-leaf stage. The test compounds, formulated as wettable powders (WP), are then, in various dosages with a water application rate of 600 l/ha (converted), with 0.2% of wetting agent added, sprayed onto the green parts of the plants. After the test plants have been kept in the greenhouse under optimum growth conditions for about 3 weeks, the effect of the preparations is rated visually in comparison to untreated controls (herbicidal effect in percent (%): 100% effect=the plants have died, 0% effect=like control plants).

Setaria viridis [2] = assay: Herbicidal post-emergence action; conditions: greenhouse, 320 g of a.i./ha
Method: as §8, §9

Echinocloa crus-galli = assay: Herbicidal post-emergence action; conditions: greenhouse, 320 g of a.i./ha
Method: as §8, §9

Lolium multiflorum [3] = assay: Herbicidal pre-emergence action; conditions: greenhouse, 320 g of a.i./ha
Description: (§10) 1. Herbicidal Pre-emergence Action
(§11) Seeds of monocotyledonous and dicotyledonous weed and crop plants are placed into sandy loam in wood fiber pots and covered with soil. The test compounds, formulated in the form of wettable powders (WP) are then, as an aqueous suspension with a water application rate of 600 l/ha (converted), with 0.2% of wetting agent added, applied to the surface of the covering soil in various dosages.
(§12) After the treatment, the pots are placed in the greenhouse and kept under good growth conditions for the test plants. The visual assessment of the emergence damage on the test plants is carried out after a trial period of 3 weeks by comparison with untreated controls (herbicidal effect in percent (%): 100% effect=the plants have died, 0% effect=like control plants).

Setaria viridis [4] = assay: Herbicidal pre-emergence action; conditions: greenhouse, 320 g of a.i./ha
Description: as §10, §11, §12

Avena sativa = assay: Herbicidal pre-emergence action; conditions: greenhouse, 320 g of a.i./ha
Description: as §10, §11, §12

Row | Compound | Summer barley observed (%) (Summer barley) | Summer wheat observed (%) (Summer wheat; 12.5 g of a.i./ha) | Summer wheat observed (%) (Summer wheat; 25 g of a.i./ha) | Summer wheat observed (%) (Summer wheat; 50 g of a.i./ha) | Lolium (herbicidal effect in percent) (Lolium multiflorum [1]) | Setaria (herbicidal effect in percent) (Setaria viridis [2]) | Echinochloa (herbicidal effect in percent) (Echinocloa crus-galli) | Lolium (herbicidal effect in percent) (Lolium multiflorum [3]) | Setaria (herbicidal effect in percent) (Setaria viridis [4]) | Avena (herbicidal effect in percent) (Avena sativa)
1 | CCc1cc(C)cc(OC)c1C1=C(O)C2CCCN2C1=O (stereo not shown) [Example I-a-2] | 90 | 40 | 60 | 95 | 100 | 100 | 100 |  |  | 
2 | CCc1cc(C)cc(OC)c1C1=C(O)C2(CCC(OC)CC2)NC1=O (single isomer, unassigned) [Example I-a-6] |  |  |  |  | 100 | 90 | 100 | 100 | 100 | 100
